From patent US20240360101A1, “PHARMACEUTICAL SALTS OF A CHK-1 INHIBITOR” (SENTINEL ONCOLOGY LIMITED, priority 2021, published 2024)
Structures can show the parent of a compound that is named as a salt. Each block holds one compound with its values, some of them ahead of it.

What was measured:
[1] = Gravimetric vapour sorption (GVS); type: physicochemical; conditions: for GVS weight loss, initial desorption cycle: from 50% RH to 0% RH; for GVS water gain, subsequent sorption cycle: up to 90% RH; for crystalline form (XRPD) after GVS at extremes of humidity: 0% RH and 90% RH, result in words
Protocol: Sorption isotherms were obtained using a Hiden Isochema moisture sorption analyser (model IGAsorp), controlled by IGAsorp Systems Software V6.50.48. The sample was maintained at a constant temperature (25° C.) by the instrument controls. The humidity was controlled by mixing streams of dry and wet nitrogen, with a total flow of 250 ml·min−. The instrument was verified for relative humidity (RH) content by measuring three calibrated Rotronic salt solutions (10-50-88%). The weight change of the sample was monitored as a function of humidity by a microbalance (accuracy+/−0.005 mg). A defined amount of sample was placed in a tared mesh stainless steel basket under ambient conditions. A full experimental cycle typically consisted of three scans (sorption, desorption and sorption) at a constant temperature (25° C.) and 10% RH intervals over a 0-90% range (60 minutes for each humidity level).

[2] = Solubility of the salts in biorelevant media; type: physicochemical; conditions: for solubility FaSSGF (pH 1.37): Fasted State Simulated Gastric Fluid; for solubility FaSSGF (pH 1.37) / solubility FaSSIF (pH 6.71) / solubility FeSSIF (pH 5.14): 25° C., 24 h, HPLC; for solubility FaSSIF (pH 6.71): Fasted State Simulated Intestinal Fluid; for solubility FeSSIF (pH 5.14): Fed State Simulated Intestinal Fluid; for solubility in FaSSGF (gastric fluid) compared with the free base: result in words
Protocol: Biorelevant media (DI H2O, FeSSIF, FaSSIF and FaSSGF) (2 mL) was charged. Samples were left to equilibrate (25° C.) over 24 h. Solubility measurements were taken using HPLC (see Method 1 above).

[3] = Two-week stability (HPLC purity); type: physicochemical; conditions: two-week storage at 25° C./60% RH and 40° C./75% RH; result in words
Protocol: HPLC analysis was carried out on an Agilent 1110/1200 series HPLC system. The column used was an Triart C18; 150×4.6 mm, 3.0 μm particle size (Ex Waters, PN: 186004644). The flow rate was 1.0 mL/min. Mobile phase A was Water:Trifluoroacetic acid (100:0.1%) and mobile phase B was Acetonitrile:Trifluoroacetic acid (100:0.1%). Detection was by UV at 302 nm. The injection volume was 5 μL, column temperature 40° C. and the following gradient was used: […]
Experimental: Maleate salt pattern B (30 mg) was placed into separate 15 mL type I glass vials. To these vials, a HDPE plastic cap was loosely attached to allow the ingress of moisture. The vials were then placed into ICH rated stability cabinets at 25° C./60% RH and 40° C./75% RH and in cold storage at 2-8° C. Following 2 weeks of storage these samples were removed from the stability cabinets and cold storage and the chemical purity assessed by HPLC (method 2). The relevant data was collected using a wavelength of 302 nm. The samples were prepared in MeCN:water (1:1).

Structure (SMILES): COc1cc(C2(F)CCN(C)CC2)ccc1-c1cc(Nc2cnc(C#N)cn2)n[nH]1 [Besylate Pattern A, 5-[[5-[4-(4-fluoro-1-methyl-4-piperidyl)-2-methoxy-phenyl]-1H-pyrazol-3-yl]amino]pyrazine-2-carbonitrile]
GVS sharp increase, sorption cycle ([1]; from 40% RH to 60% RH): 6%
GVS weight loss, initial desorption cycle ([1]; 25° C.): 2.5 wt %
GVS steady decrease, following desorption cycle ([1]; from 90% RH to 30% RH): ~3 wt %
GVS water gain, subsequent sorption cycle ([1]; 25° C.): 10%

Structure (SMILES): COc1cc(C2(F)CCN(C)CC2)ccc1-c1cc(Nc2cnc(C#N)cn2)n[nH]1 [Besylate Pattern C, 5-[[5-[4-(4-fluoro-1-methyl-4-piperidyl)-2-methoxy-phenyl]-1H-pyrazol-3-yl]amino]pyrazine-2-carbonitrile]
GVS sharp increase, sorption cycle ([1]; between 0% RH and 20% RH): ~2.5 wt %
GVS weight loss, initial desorption cycle ([1]; 25° C.): ~3 wt %
GVS water gain, subsequent sorption cycle ([1]; 25° C.): 3.75%

Structure (SMILES): COc1cc(C2(F)CCN(C)CC2)ccc1-c1cc(Nc2cnc(C#N)cn2)n[nH]1 [Maleate Pattern A, 5-[[5-[4-(4-fluoro-1-methyl-4-piperidyl)-2-methoxy-phenyl]-1H-pyrazol-3-yl]amino]pyrazine-2-carbonitrile]
crystalline form (XRPD) after GVS at extremes of humidity [1]: A new pattern was isolated at 0 and 90% RH and was named B
GVS weight gain at 90% RH, following sorption cycles ([1]; 90% RH, following sorption cycles): 4 wt %
GVS water loss, subsequent desorption cycle ([1]; down to 0% RH, 25° C.): 4%
GVS weight gain, initial sorption cycle ([1]; from 50% RH to 90% RH, 25° C.): 1.5 wt %

Structure (SMILES): COc1cc(C2(F)CCN(C)CC2)ccc1-c1cc(Nc2cnc(C#N)cn2)n[nH]1 [Naphthalene-2-Sulfonate Pattern A, 5-[[5-[4-(4-fluoro-1-methyl-4-piperidyl)-2-methoxy-phenyl]-1H-pyrazol-3-yl]amino]pyrazine-2-carbonitrile]
crystalline form (XRPD) after GVS at extremes of humidity [1]: no change in the crystallinity of the solid occurred at extremes of humidity
GVS weight loss, initial desorption cycle ([1]; 25° C.): 1 wt %
GVS water gain, subsequent sorption cycle ([1]; 25° C.): ~2.25%

Structure (SMILES): COc1cc(C2(F)CCN(C)CC2)ccc1-c1cc(Nc2cnc(C#N)cn2)n[nH]1 [Tosylate Pattern A, 5-[[5-[4-(4-fluoro-1-methyl-4-piperidyl)-2-methoxy-phenyl]-1H-pyrazol-3-yl]amino]pyrazine-2-carbonitrile]
crystalline form (XRPD) after GVS at extremes of humidity [1]: No form change at 0% RH and 90% RH
GVS sharp decrease, initial desorption ([1]; from 10% RH to 0% RH): ~3 wt %
GVS steady increase, subsequent sorption ([1]; from 10% RH to 90% RH): ~1%
GVS weight loss, initial desorption cycle ([1]; 25° C.): 3.5 wt %
GVS steady decrease, initial desorption ([1]; from 50% RH to 10% RH): 0.5 wt %
GVS sharp water gain, subsequent sorption ([1]; up to 10% RH): ~3%

Structure (SMILES): COc1cc(C2(F)CCN(C)CC2)ccc1-c1cc(Nc2cnc(C#N)cn2)n[nH]1 [besylate pattern B, 5-[[5-[4-(4-fluoro-1-methyl-4-piperidyl)-2-methoxy-phenyl]-1H-pyrazol-3-yl]amino]pyrazine-2-carbonitrile]
solubility FaSSGF (pH 1.37) [2]: 0.55 mg/mL
solubility FaSSIF (pH 6.71) [2]: 0.04 mg/mL
solubility FeSSIF (pH 5.14) [2]: 0.57 mg/mL
GVS weight loss, initial desorption cycle ([1]; 25° C.): 1 wt %
GVS water gain, subsequent sorption cycle ([1]; 25° C.): ~2.25%
Aqueous solubility mg/mL 24 h: 1.18 mg/mL

Structure (SMILES): COc1cc(C2(F)CCN(C)CC2)ccc1-c1cc(Nc2cnc(C#N)cn2)n[nH]1 [bis-besylate pattern B, 5-[[5-[4-(4-fluoro-1-methyl-4-piperidyl)-2-methoxy-phenyl]-1H-pyrazol-3-yl]amino]pyrazine-2-carbonitrile]
Aqueous solubility mg/mL 24 h: 0.06 mg/mL

Structure (SMILES): COc1cc(C2(F)CCN(C)CC2)ccc1-c1cc(Nc2cnc(C#N)cn2)n[nH]1 [bis-maleate pattern B, 5-[[5-[4-(4-fluoro-1-methyl-4-piperidyl)-2-methoxy-phenyl]-1H-pyrazol-3-yl]amino]pyrazine-2-carbonitrile]
Aqueous solubility mg/mL 24 h: 0.15 mg/mL

Structure (SMILES): COc1cc(C2(F)CCN(C)CC2)ccc1-c1cc(Nc2cnc(C#N)cn2)n[nH]1 [malonate, 5-[[5-[4-(4-fluoro-1-methyl-4-piperidyl)-2-methoxy-phenyl]-1H-pyrazol-3-yl]amino]pyrazine-2-carbonitrile]
solubility in FaSSGF (gastric fluid) compared with the free base [2]: improved solubility over the free base in FaSSGF

Further lines, with some results ahead:

solubility FaSSGF (pH 1.37) [2]: 8.39 mg/mL
solubility FaSSIF (pH 6.71) [2]: 0.15 mg/mL
solubility FeSSIF (pH 5.14) [2]: 0.61 mg/mL
Aqueous solubility mg/mL 24 h: 10.37 mg/mL
Structure (SMILES): COc1cc(C2(F)CCN(C)CC2)ccc1-c1cc(Nc2cnc(C#N)cn2)n[nH]1 [hydrochloride pattern C, 5-[[5-[4-(4-fluoro-1-methyl-4-piperidyl)-2-methoxy-phenyl]-1H-pyrazol-3-yl]amino]pyrazine-2-carbonitrile]

solubility in FaSSGF (gastric fluid) compared with the free base ([2]; maleate): improved solubility in gastric fluid
Structure (SMILES): COc1cc(C2(F)CCN(C)CC2)ccc1-c1cc(Nc2cnc(C#N)cn2)n[nH]1 [maleate salt, 5-[[5-[4-(4-fluoro-1-methyl-4-piperidyl)-2-methoxy-phenyl]-1H-pyrazol-3-yl]amino]pyrazine-2-carbonitrile maleate]
solubility in FaSSGF (gastric fluid) compared with the free base ([2]; listed as maleate, maleate): improved solubility over the free base in FaSSGF
physical, polymorphic and chemical stability on storage [3]: remained as a free flowing solid with no evidence of deliquescence or agglomeration and no change in polymorphic form with good chemical stability

solubility FaSSGF (pH 1.37) [2]: 3.24 mg/mL
solubility FeSSIF (pH 5.14) [2]: 0.27 mg/mL
GVS sharp increase, sorption cycle ([1]; between 30% RH and 40% RH): ~3 wt %
GVS weight loss, initial desorption cycle ([1]; 25° C.): 5 wt %
GVS water gain, subsequent sorption cycle ([1]; 25° C.): 7.5%
Aqueous solubility mg/mL 24 h: 7.41 mg/mL
Structure (SMILES): COc1cc(C2(F)CCN(C)CC2)ccc1-c1cc(Nc2cnc(C#N)cn2)n[nH]1 [malonate pattern B, 5-[[5-[4-(4-fluoro-1-methyl-4-piperidyl)-2-methoxy-phenyl]-1H-pyrazol-3-yl]amino]pyrazine-2-carbonitrile]

Aqueous solubility mg/mL 24 h: 3.16 mg/mL
Structure (SMILES): COc1cc(C2(F)CCN(C)CC2)ccc1-c1cc(Nc2cnc(C#N)cn2)n[nH]1 [oxalate pattern A, 5-[[5-[4-(4-fluoro-1-methyl-4-piperidyl)-2-methoxy-phenyl]-1H-pyrazol-3-yl]amino]pyrazine-2-carbonitrile]

Aqueous solubility mg/mL 24 h: 1.6 mg/mL
Structure (SMILES): COc1cc(C2(F)CCN(C)CC2)ccc1-c1cc(Nc2cnc(C#N)cn2)n[nH]1 [sulphate pattern D, 5-[[5-[4-(4-fluoro-1-methyl-4-piperidyl)-2-methoxy-phenyl]-1H-pyrazol-3-yl]amino]pyrazine-2-carbonitrile]

solubility FaSSGF (pH 1.37) [2]: 0.32 mg/mL
solubility FaSSIF (pH 6.71) [2]: 0.04 mg/mL
solubility FeSSIF (pH 5.14) [2]: 0.61 mg/mL
Aqueous solubility mg/mL 24 h: 1.55 mg/mL
Structure (SMILES): COc1cc(C2(F)CCN(C)CC2)ccc1-c1cc(Nc2cnc(C#N)cn2)n[nH]1 [tosylate pattern C, 5-[[5-[4-(4-fluoro-1-methyl-4-piperidyl)-2-methoxy-phenyl]-1H-pyrazol-3-yl]amino]pyrazine-2-carbonitrile]
